Experimental findings from patent US8481732B2 (Incyte Corporation, priority 2009, dated 2013) are described below.

As usually defined, the IC50 is the concentration needed to halve the response being measured.

In this assay the target is T1, histamine H4 receptor (Homo sapiens, UniProt Q9H3N8).
T1 construct: expressed in transfected cells; host or cells: HEK293SFM cells (membrane preparation)
T1 sequence (Q9H3N8 whole entry): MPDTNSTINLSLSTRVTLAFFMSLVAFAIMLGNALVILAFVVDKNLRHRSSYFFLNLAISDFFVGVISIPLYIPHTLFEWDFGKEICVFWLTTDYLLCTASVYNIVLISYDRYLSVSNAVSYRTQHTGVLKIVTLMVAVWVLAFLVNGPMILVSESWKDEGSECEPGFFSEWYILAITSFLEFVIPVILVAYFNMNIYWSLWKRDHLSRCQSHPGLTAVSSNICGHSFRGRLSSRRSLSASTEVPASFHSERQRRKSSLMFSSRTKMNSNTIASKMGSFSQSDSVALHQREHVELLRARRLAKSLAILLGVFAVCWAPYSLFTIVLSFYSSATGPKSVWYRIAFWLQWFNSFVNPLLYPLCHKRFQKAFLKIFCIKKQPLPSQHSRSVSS
Nature of the assay: H4 Membrane Binding Assay (3H-Histamine displacement). Conditions: membranes of recombinant HEK293SFM cells, 10 nM 3H-Histamine, 1.5 hr at room temperature. Put shortly:
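Membranes from HEK293SFM cells expressing human H4 (also human H1–H3, mouse H4), prepared in ice-cold 50 mM Tris-HCl pH 7.5. [3H]-histamine displacement, nonspecific binding defined with 1000× unlabeled ligand. Bound radioactivity separated on PEI-treated GF/B filters and measured by liquid scintillation counting.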
`COC(=O)c1ccc(Oc2cccc(CC(NC(=O)c3ccc4c(N5CCN(C)CC5)nc(N)nc4c3)C(=O)N(C)C)c2)cc1` (stereo not shown) [Example 169, Methyl 4-{3-[2-({[2-amino-4-(4-methylpiperazin-1-yl)quinazolin-7-yl]carbonyl}amino)-3-(dimethylamino)-3-oxopropyl]phenoxy}benzoate]: the IC50 was found to be 23 nM. With `CN1CCN(c2nc(N)nc3cc(C(=O)N[C@@H](Cc4ccc(-c5cccs5)cc4)C(=O)N(C)C)ccc23)CC1` [Example 148, 2-Amino-N-{(1S)-2-(dimethylamino)-2-oxo-1-[4-(2-thienyl)benzyl]ethyl}-4-(4-methylpiperazin-1-yl)quinazoline-7-carboxamide] the figure was 18 nM.

As for `CN1CCN(c2nc(N)nc3cc(C(=O)NC(Cc4ccc5c(c4)OC(F)(F)O5)C(=O)N(C)C)ccc23)CC1` (stereo not shown) [Example 145, 2-Amino-N-[1-[(2,2-difluoro-1,3-benzodioxol-5-yl)methyl]-2-(dimethylamino)-2-oxoethyl]-4-(4-methylpiperazin-1-yl)quinazoline-7-carboxamide], the IC50 was determined as 34 nM.

Consider `CCOC(=O)c1sc(Oc2cccc(CNC(=O)c3ccc4c(N5CCN(C)CC5)nc(N)nc4c3)c2)nc1C` [Example 185, Ethyl 2-{3-[({[2-amino-4-(4-methylpiperazin-1-yl)quinazolin-7-yl]carbonyl}amino)methyl]phenoxy}-4-methyl-1,3-thiazole-5-carboxylate], for which the IC50 is 8.4 nM. `CN1CCN(c2nc(N)nc3cc(C(=O)NCc4cccc(OCc5cccc(C#N)c5)c4)ccc23)CC1` [Example 192, 2-amino-N-(3-(3-cyanobenzyloxy)benzyl)-4-(4-methylpiperazin-1-yl)quinazoline-7-carboxamide]: the IC50 is 6.3 nM.

As to `CN1CCN(c2cc(-c3ccc4c(c3)CN(C(=O)CCc3ccccc3)CC4)nc(N)n2)CC1` [Example 101, 4-(4-Methylpiperazin-1-yl)-6-[2-(3-phenylpropanoyl)-1,2,3,4-tetrahydroisoquinolin-7-yl]pyrimidin-2-amine], the IC50 stood at 99 nM.

In the case of `COC(=O)c1ccc(COc2cccc3c2CCN(C(=O)c2ccc4c(N5CCN(C)CC5)nc(N)nc4c2)C3)cc1` [Example 211, Methyl 4-((2-(2-amino-4-(4-methylpiperazin-1-yl)quinazoline-7-carbonyl)-1,2,3,4-tetrahydroisoquinolin-5-yloxy)methyl)benzoate], the IC50 was 63 nM.

As for `COC(=O)N1CCC(CC(=O)N2CCc3ccc(-c4cc(N5CCN(C)CC5)nc(N)n4)cc3C2)C1` (stereo not shown) [Example 118, Methyl 3-{2-[7-[2-amino-6-(4-methylpiperazin-1-yl)pyrimidin-4-yl]-3,4-dihydroisoquinolin-2(1H)-yl]-2-oxoethyl}pyrrolidine-1-carboxylate], the IC50 was found to be 178 nM. With `CN1CCN(c2cc(-c3ccc4c(c3)CN(C(=O)OC3CCCC3)CC4)nc(N)n2)CC1` [Example 7, Cyclopentyl 7-[2-amino-6-(4-methylpiperazin-1-yl)pyrimidin-4-yl]-3,4-dihydroisoquinoline-2(1H)-carboxylate], the IC50 stood at 43.3 nM. On to `CN1CCN(c2cc(-c3ccc4c(c3)CN(C(=O)NCc3ccccc3)CC4)nc(N)n2)CC1` [Example 80, 7-[2-Amino-6-(4-methylpiperazin-1-yl)pyrimidin-4-yl]-N-benzyl-3,4-dihydroisoquinoline-2(1H)-carboxamide], for which the concentration for half-maximal inhibition (IC50) was 232 nM.

With `CN1CCN(c2cc(-c3ccc4c(c3)CN(C(=O)Cc3ccccc3)CC4)nc(N)n2)CC1` [Example 6, 4-(4-Methylpiperazin-1-yl)-6-[2-(phenylacetyl)-1,2,3,4-tetrahydroisoquinolin-7-yl]pyrimidin-2-amine], the IC50 was found to be 37.8 nM. Turning to `COC(=O)c1cccc(COc2cccc(C(C)NC(=O)c3ccc4c(N5CCN(C)CC5)nc(N)nc4c3)c2)c1` (stereo not shown) [Example 200, Methyl 3-({3-[1-({[2-amino-4-(4-methylpiperazin-1-yl)quinazolin-7-yl]carbonyl}amino)ethyl]phenoxy}methyl)benzoate], the IC50 was determined as 7.1 nM. Take `CC(C)[C@H](C)NC(=O)N1CCc2ccc(-c3cc(N4CCN(C)CC4)nc(N)n3)cc2C1` [Example 97, 7-[2-Amino-6-(4-methylpiperazin-1-yl)pyrimidin-4-yl]-N-[(1S)-1,2-dimethylpropyl]-3,4-dihydroisoquinoline-2(1H)-carboxamide]: the IC50 stood at 73 nM. Turning to `COC(=O)c1ccc(NC(=O)N2CCc3ccc(-c4cc(N5CCN(C)CC5)nc(N)n4)cc3C2)nc1` [Example 45, Methyl 6-({[7-[2-amino-6-(4-methylpiperazin-1-yl)pyrimidin-4-yl]-3,4-dihydroisoquinolin-2(1H)-yl]carbonyl}amino)nicotinate], the IC50 worked out at 60 nM. With `COc1cccc(COc2ccc3c(c2)C(NC(=O)c2ccc4c(N5CCN(C)CC5)nc(N)nc4c2)CCC3)c1` (stereo not shown) [Example 203, 2-Amino-N-(7-(3-methoxybenzyloxy)-1,2,3,4-tetrahydronaphthalen-1-yl)-4-(4-methylpiperazin-1-yl)quinazoline-7-carboxamide] the figure was 17 nM; with `Cc1ccc(CNC(=O)c2ccc3c(N4CCN(C)CC4)nc(N)nc3c2)cc1Cl` [Example 36, 2-Amino-N-(3-chloro-4-methylbenzyl)-4-(4-methylpiperazin-1-yl)quinazoline-7-carboxamide], 126 nM.

For the compound `CC(NC(=O)N1CCc2ccc(-c3cc(N4CCN(C)CC4)nc(N)n3)cc2C1)c1ccn(C)n1` (stereo not shown) [Example 127, 7-[2-Amino-6-(4-methylpiperazin-1-yl)pyrimidin-4-yl]-N-[1-(1-methyl-1H-pyrazol-3-yl)ethyl]-3,4-dihydroisoquinoline-2(1H)-carboxamide], the IC50 worked out at 253 nM.

`CNC(=O)c1ccc(N2CCc3ccc(-c4cc(N5CCN(C)CC5)nc(N)n4)cc3C2)cn1` [Example 17, 5-{7-[2-Amino-6-(4-methylpiperazin-1-yl)pyrimidin-4-yl]-3,4-dihydroisoquinolin-2(1H)-yl}-N-methylpyridine-2-carboxamide]: the IC50 is 199 nM. With `Cc1cnc(C)c(Oc2cccc(CNC(=O)c3ccc4c(N5CCN(C)CC5)nc(N)nc4c3)c2)n1` [Example 187, 2-Amino-N-{3-[(3,6-dimethylpyrazin-2-yl)oxy]benzyl}-4-(4-methylpiperazin-1-yl)quinazoline-7-carboxamide] the figure was 41 nM. As for `COc1cccc(Oc2cccc(CNC(=O)c3ccc4c(N5CCN(C)CC5)nc(N)nc4c3)c2)c1C#N` [Example 190, 2-Amino-N-[3-(2-cyano-3-methoxyphenoxy)benzyl]-4-(4-methylpiperazin-1-yl)quinazoline-7-carboxamide], the figure is 11 nM. On to `CN1CCN(c2cc(-c3ccc4c(c3)CN(C(=O)Nc3cccc(Cl)c3F)CC4)nc(N)n2)CC1` [Example 40, 7-[2-Amino-6-(4-methylpiperazin-1-yl)pyrimidin-4-yl]-N-(3-chloro-2-fluorophenyl)-3,4-dihydroisoquinoline-2(1H)-carboxamide], for which the IC50 was found to be 16 nM. As for `CN1CCN(c2cc(-c3ccc4c(c3)CN(c3ccc(C#N)cn3)CC4)nc(N)n2)CC1` [Example 16, 6-{7-[2-Amino-6-(4-methylpiperazin-1-yl)pyrimidin-4-yl]-3,4-dihydroisoquinolin-2(1H)-yl}nicotinonitrile], the figure is 48 nM; as for `COC(=O)[C@H](Cc1ccc(-c2ccccc2)cc1)NC(=O)c1ccc2c(N3CCN(C)CC3)nc(N)nc2c1` [Example 138, Methyl (2S)-2-({[2-amino-4-(4-methylpiperazin-1-yl)quinazolin-7-yl]carbonyl}amino)-3-biphenyl-4-ylpropanoate], 23 nM. Take `CC(C)Oc1ccc(C[C@@H](C#N)NC(=O)c2ccc3c(N4CCN(C)CC4)nc(N)nc3c2)cc1` [Example 137]: the IC50 was determined as 42 nM. For `CN1CCN(c2cc(-c3ccc4c(c3)CN(C(=O)Cn3cccn3)CC4)nc(N)n2)CC1` [Example 112, 4-(4-Methylpiperazin-1-yl)-6-[2-(1H-pyrazol-1-ylacetyl)-1,2,3,4-tetrahydroisoquinolin-7-yl]pyrimidin-2-amine], the IC50 worked out at 337 nM. As to `CC(NC(=O)c1ccc2c(N3CCN(C)CC3)nc(N)nc2c1)c1cccc(Oc2ccc(Cl)cc2C#N)c1` (stereo not shown) [Example 197, 2-Amino-N-{1-[3-(4-chloro-2-cyanophenoxy)phenyl]ethyl}-4-(4-methylpiperazin-1-yl)quinazoline-7-carboxamide], the IC50 is 7.1 nM.

Regarding `CC(NC(=O)c1ccc2c(N3CCN(C)CC3)nc(N)nc2c1)c1ccccc1` (stereo not shown) [Example 24, 2-Amino-4-(4-methylpiperazin-1-yl)-N-(1-phenylethyl)quinazoline-7-carboxamide], the IC50 was 565 nM. As for `CN1CCN(c2cc(-c3ccc4c(c3)CN(C(=O)N[C@@H]3c5ccccc5C[C@@H]3O)CC4)nc(N)n2)CC1` [Example 87, 7-[2-Amino-6-(4-methylpiperazin-1-yl)pyrimidin-4-yl]-N-[(1R,2S)-2-hydroxy-2,3-dihydro-1H-inden-1-yl]-3,4-dihydroisoquinoline-2(1H)-carboxamide], the figure is 218 nM.

Consider `CN1CCN(c2cc(-c3ccc4c(c3)CN(C(=O)Cc3ccc(C#N)cc3)CC4)nc(N)n2)CC1` [Example 107, 4-{2-[7-[2-Amino-6-(4-methylpiperazin-1-yl)pyrimidin-4-yl]-3,4-dihydroisoquinolin-2(1H)-yl]-2-oxoethyl}benzonitrile], for which the IC50 was 34 nM. As for `CN1CCN(c2nc(N)nc3cc(C(=O)NCCc4ccccc4)ccc23)CC1` [Example 37, 2-Amino-4-(4-methylpiperazin-1-yl)-N-(2-phenylethyl)quinazoline-7-carboxamide], the figure is 129 nM; as for `CN1CCN(c2cc(-c3ccc4c(c3)CN(C(=O)c3ccc(Cl)cc3)CC4)nc(N)n2)CC1` [Example 2, 4-[2-(4-Chlorobenzoyl)-1,2,3,4-tetrahydroisoquinolin-7-yl]-6-(4-methylpiperazin-1-yl)pyrimidin-2-amine], 172 nM.
